Experimental data as given in patent US8975235B2, “Lysophosphatidic acid receptor antagonists” (InterMune, Inc., priority 2011, dated 2015).

Target: Human LPA1 (Homo sapiens, UniProt Q92633)
Experiment: Beta-Arrestin based assay for human LPA1R antagonists (PathHunter)
Format: cell-based
Set-up: host or cells: CHO
Settings: CHO cells stably expressing ProLink tagged human LPA1R; agonist LPA 0.5 micromolar
Method: Beta-Arrestin Based Assays for Human LPA1R Antagonists and Agonists
A CHO cell line stably expressing the ProLink™ tagged human LPA1R was obtained from DiscoverX Inc, Fremont, Calif. In this system, β-Arrestin was fused to an N-terminal deletion mutant of β-galactosidase (termed the enzyme acceptor or EA), the human LPA1R was fused to a smaller (42 amino acids) weakly complementing fragment termed ProLink™. […] Cell handling and assays were performed according to protocols specified in the PathHunter® assays kits (DiscoverX, Fremont, Calif.). Assays were performed in quadruplicate in white 384 well plates. End point luminescence data were plotted and fit to a 4 parameter logistic function to obtain IC50 values. For antagonist assays, an […] concentration of agonist (LPA) equal to 0.5 micromolar was used.

Human LPA1, sequence (Q92633 whole entry): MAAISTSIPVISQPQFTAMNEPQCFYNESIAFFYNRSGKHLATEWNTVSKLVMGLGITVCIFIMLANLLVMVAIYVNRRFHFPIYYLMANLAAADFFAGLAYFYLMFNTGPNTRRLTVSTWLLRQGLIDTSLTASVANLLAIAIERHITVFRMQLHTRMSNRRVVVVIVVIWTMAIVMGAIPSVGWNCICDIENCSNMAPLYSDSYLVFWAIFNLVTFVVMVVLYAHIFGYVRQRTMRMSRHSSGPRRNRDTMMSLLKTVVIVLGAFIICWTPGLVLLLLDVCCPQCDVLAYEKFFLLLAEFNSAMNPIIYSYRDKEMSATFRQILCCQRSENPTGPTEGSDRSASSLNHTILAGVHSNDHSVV

Structure (SMILES) | EC50 [µM]
Cc1cc(-c2snc(C)c2NC(=O)O[C@H](C)c2ccccc2Cl)c(C)cc1-c1ccc(C2(C(=O)O)CC2)cc1 [Compound 123] | 0.05 to 0.5
Cc1cc(-c2ccc(C3(C(=O)O)CC3)cc2)c(F)cc1-c1snc(C)c1NC(=O)O[C@H](C)c1ccccc1Cl [Compound 124] | < 0.05
Cc1noc(C#Cc2ccc3cc(C4(C(=O)O)CC4)ccc3c2)c1NC(=O)O[C@H](C)c1ccccc1Cl [Compound 131] | < 0.05
Cc1noc(-c2ccc(-c3ccc(N4CC[C@@H](C(=O)O)C4)cc3)cc2)c1NC(=O)O[C@H](C)c1ccccc1 [Compound 133] | > 0.5
Cc1noc(-c2ccc(-c3ccc(N4CC[C@@H](C(=O)O)C4)cc3)cc2)c1NC(=O)O[C@H](C)c1ccccc1Cl [Compound 134] | 0.05 to 0.5
Cc1noc(-c2ccc(-c3ccc(N4CCC[C@@H](C(=O)O)C4)cc3)cc2)c1NC(=O)O[C@H](C)c1ccccc1 [Compound 136] | 0.05 to 0.5
Cc1noc(-c2ccc(-c3ccc(N4CCC[C@H](C(=O)O)C4)cc3)cc2)c1NC(=O)O[C@H](C)c1ccccc1 [Compound 137] | 0.05 to 0.5
Cc1noc(-c2ccc(-c3ccc(N4CCC[C@@H](C(=O)O)C4)cc3)cc2)c1NC(=O)O[C@H](C)c1ccccc1Cl [Compound 138] | 0.05 to 0.5
Cc1noc(-c2ccc(-c3ccc(N4CCC[C@H](C(=O)O)C4)cc3)cc2)c1NC(=O)O[C@H](C)c1ccccc1Cl [Compound 139] | 0.05 to 0.5
Cc1noc(-c2ccc3cc(C#CC4(C(=O)O)CC4)ccc3c2)c1NC(=O)O[C@H](C)c1ccccc1Cl [Compound 141] | < 0.05
Cc1noc(-c2ccc3cc(C#CC4(C(=O)O)CC4)ccc3c2)c1NC(=O)OCc1ccccc1 [Compound 142] | < 0.05
C[C@@H](OC(=O)Nc1ncoc1-c1ccc(-c2ccc(C3(C(=O)O)CC3)cc2)cc1)c1ccccc1 [Compound 143] | 0.05 to 0.5
C[C@@H](OC(=O)Nc1ncoc1-c1ccc(-c2ccc(C3(C(=O)O)CC3)cc2)cc1)c1ccccc1Cl [Compound 144] | < 0.05
O=C(Nc1ncoc1-c1ccc(-c2ccc(C3(C(=O)O)CC3)cc2)cc1)OCc1ccccc1 [Compound 145] | 0.05 to 0.5
O=C(Nc1c(-c2ccc(-c3ccc(C4(C(=O)O)CC4)cc3)cc2)oc2cnccc12)OCc1ccccc1 [Compound 151] | 0.05 to 0.5
Cc1nc(-c2ccc(-c3ccc(C4(C(=O)O)CC4)cc3)cc2)c(NC(=O)O[C@H](C)c2ccccc2Cl)o1 [Compound 155] | 0.05 to 0.5

Structure (SMILES) | EC50 [µM]
Cc1nc(-c2ccc(-c3ccc(C4(C(=O)O)CC4)cc3)cc2)c(NC(=O)OCc2ccccc2)o1 [Compound 156] | > 0.5
C[C@@H](OC(=O)Nc1nncn1-c1ccc(-c2ccc(C3(C(=O)O)CC3)cc2)cc1)c1ccccc1 [Compound 158] | > 0.5
C[C@@H](OC(=O)Nc1nncn1-c1ccc(-c2ccc(C3(C(=O)O)CC3)cc2)cc1)c1ccccc1Cl [Compound 159] | > 0.5
O=C(Nc1nncn1-c1ccc(-c2ccc(C3(C(=O)O)CC3)cc2)cc1)OCc1ccccc1 [Compound 160] | > 0.5
Cc1nc(NC(=O)O[C@H](C)c2ccccc2Cl)n(-c2ccc(-c3ccc(C4(C(=O)O)CC4)cc3)cc2)n1 [Compound 162] | > 0.5
C[C@@H](OC(=O)Nc1ccn(-c2ccc(-c3ccc(C4(C(=O)O)CC4)cc3)cc2)n1)c1ccccc1 [Compound 163] | > 0.5
C[C@@H](OC(=O)Nc1cncn1-c1ccc(-c2ccc(C3(C(=O)O)CC3)cc2)cc1)c1ccccc1Cl [Compound 164] | 0.05 to 0.5
Cn1cnc(-c2ccc(-c3ccc(C4(C(=O)O)CC4)cc3)cc2)c1NC(=O)OCc1ccccc1 [Compound 167] | > 0.5
C[C@@H](OC(=O)Nc1c(-c2ccc(-c3ccc(C4(C(=O)O)CC4)cc3)cc2)ncn1C)c1ccccc1 [Compound 169] | 0.05 to 0.5
C[C@@H](OC(=O)Nc1nonc1-c1ccc(-c2ccc(C3(C(=O)O)CC3)cc2)cc1)c1ccccc1 [Compound 176] | < 0.05
Cc1nsc(-c2ccc(-c3ccc(C4(C(=O)O)CC4)cc3)c(Cl)c2)c1NC(=O)O[C@H](C)c1ccccc1 [Compound 188] | < 0.05
Cc1nsc(-c2ccc(-c3ccc(C4(C(=O)O)CC4)cc3)cc2C#N)c1NC(=O)O[C@H](C)c1ccccc1 [Compound 189] | > 0.5
Cc1nsc(-c2ccc(-c3ccc(CC(=O)O)cc3Cl)cc2)c1NC(=O)O[C@H](C)c1ccccc1Cl [Compound 190] | 0.05 to 0.5
Cc1nsc(-c2ccc(-c3ccc(C4(C(=O)O)CC4)c(Cl)c3)cc2)c1NC(=O)O[C@H](C)c1ccccc1Cl [Compound 191] | < 0.05
Cc1nsc(-c2ccc(-c3ccc(CC(=O)O)c(F)c3)cc2)c1NC(=O)O[C@H](C)c1ccccc1Cl [Compound 196] | 0.05 to 0.5
Cc1nsc(-c2ccc(-c3ccc(C4(C(=O)O)CC4)c(F)c3)cc2)c1NC(=O)O[C@H](C)c1ccccc1Cl [Compound 197] | < 0.05

Now from value to compound:

EC50 [µM] | Structure (SMILES)
0.05 to 0.5 | Cc1nsc(-c2ccc(-c3ccc(C4(C(=O)O)CCCC4)cc3)cc2)c1NC(=O)O[C@H](C)c1ccccc1 [Compound 125]
0.05 to 0.5 | Cc1nsc(-c2ccc(-c3ccc(C4(C(=O)O)CCCCC4)cc3)cc2)c1NC(=O)O[C@H](C)c1ccccc1 [Compound 126]
0.05 to 0.5 | Cc1nsc(-c2ccc(-c3ccc(C4(C(=O)O)CCC4)cc3)cc2)c1NC(=O)O[C@H](C)c1ccccc1 [Compound 127]
0.05 to 0.5 | Cc1noc(C#Cc2ccc3cc(CC(=O)O)ccc3c2)c1NC(=O)O[C@H](C)c1ccccc1 [Compound 128]
0.05 to 0.5 | Cc1noc(C#Cc2ccc3cc(CC(=O)O)ccc3c2)c1NC(=O)O[C@H](C)c1ccccc1Cl [Compound 129]
< 0.05 | Cc1noc(C#Cc2ccc3cc(C4(C(=O)O)CC4)ccc3c2)c1NC(=O)O[C@H](C)c1ccccc1 [Compound 130]
0.05 to 0.5 | Cc1noc(-c2ccc(-c3ccc(N4CC[C@H](C(=O)O)C4)cc3)cc2)c1NC(=O)O[C@H](C)c1ccccc1 [Compound 132]
0.05 to 0.5 | Cc1noc(-c2ccc(-c3ccc(N4CC[C@H](C(=O)O)C4)cc3)cc2)c1NC(=O)O[C@H](C)c1ccccc1Cl [Compound 135]
> 0.5 | O=C(Nc1ocnc1-c1ccc(-c2ccc(C3(C(=O)O)CC3)cc2)cc1)OCc1ccccc1 [Compound 148]
< 0.05 | C[C@@H](OC(=O)Nc1c(-c2ccc(-c3ccc(C4(C(=O)O)CC4)cc3)cc2)oc2cnccc12)c1ccccc1 [Compound 150]
0.05 to 0.5 | Cc1nc(-c2ccc(-c3ccc(C4(C(=O)O)CC4)cc3)cc2)c(NC(=O)O[C@H](C)c2ccccc2)o1 [Compound 154]
0.05 to 0.5 | Cc1nnn(-c2ccc(-c3ccc(C4(C(=O)O)CC4)cc3)cc2)c1NC(=O)OCc1ccccc1 [Compound 157]
> 0.5 | Cc1nc(NC(=O)O[C@H](C)c2ccccc2)n(-c2ccc(-c3ccc(C4(C(=O)O)CC4)cc3)cc2)n1 [Compound 161]
0.05 to 0.5 | C[C@@H](OC(=O)Nc1cncn1-c1ccc(-c2ccc(C3(C(=O)O)CC3)cc2)cc1)c1ccccc1 [Compound 165]
> 0.5 | O=C(Nc1cncn1-c1ccc(-c2ccc(C3(C(=O)O)CC3)cc2)cc1)OCc1ccccc1 [Compound 166]
< 0.05 | C[C@@H](OC(=O)Nc1c(-c2ccc(-c3ccc(C4(C(=O)O)CC4)cc3)cc2)ncn1C)c1ccccc1Cl [Compound 168]

EC50 [µM] | Structure (SMILES)
< 0.05 | Cn1ncc(-c2ccc(-c3ccc(C4(C(=O)O)CC4)cc3)cc2)c1NC(=O)OCc1ccccc1 [Compound 172]
> 0.5 | O=C(Nc1snnc1-c1ccc(-c2ccc(C3(C(=O)O)CC3)cc2)cc1)OCc1ccccc1 [Compound 173]
0.05 to 0.5 | C[C@@H](OC(=O)Nc1snnc1-c1ccc(-c2ccc(C3(C(=O)O)CC3)cc2)cc1)c1ccccc1 [Compound 174]
0.05 to 0.5 | C[C@@H](OC(=O)Nc1snnc1-c1ccc(-c2ccc(C3(C(=O)O)CC3)cc2)cc1)c1ccccc1Cl [Compound 175]
< 0.05 | C[C@@H](OC(=O)Nc1nonc1-c1ccc(-c2ccc(C3(C(=O)O)CC3)cc2)cc1)c1ccccc1Cl [Compound 177]
0.05 to 0.5 | Cc1noc(-c2nc3cc4oc(C5(C(=O)O)CC5)nc4cc3o2)c1NC(=O)O[C@H](C)c1ccccc1 [Compound 178]
< 0.05 | Cc1nsc(-c2cc(F)c(-c3ccc(C4(C(=O)O)CC4)cc3)cc2Cl)c1NC(=O)O[C@H](C)c1ccccc1Cl [Compound 180]
< 0.05 | Cc1nsc(-c2cc(F)c(-c3ccc(C4(C(=O)O)CC4)cc3)cc2F)c1NC(=O)O[C@H](C)c1ccccc1Cl [Compound 181]
0.05 to 0.5 | Cc1nsc(-c2c(F)cc(-c3ccc(C4(C(=O)O)CC4)cc3)cc2F)c1NC(=O)O[C@H](C)c1ccccc1 [Compound 183]
< 0.05 | Cc1nsc(-c2ccc(-c3ccc(C4(C(=O)O)CC4)cc3)cc2F)c1NC(=O)O[C@H](C)c1ccccc1 [Compound 184]
< 0.05 | Cc1nsc(-c2ccc(-c3ccc(C4(C(=O)O)CC4)cc3)c(Cl)c2)c1NC(=O)O[C@H](C)c1ccccc1Cl [Compound 186]
< 0.05 | Cc1nsc(-c2ccc(-c3ccc(C4(C(=O)O)CC4)cc3)cc2Cl)c1NC(=O)O[C@H](C)c1ccccc1Cl [Compound 187]
0.05 to 0.5 | Cc1nsc(-c2ccc(-c3ccc(CC(=O)O)c(Cl)c3)cc2)c1NC(=O)O[C@H](C)c1ccccc1Cl [Compound 192]
0.05 to 0.5 | Cc1cc(CC(=O)O)ccc1-c1ccc(-c2snc(C)c2NC(=O)O[C@H](C)c2ccccc2Cl)cc1 [Compound 193]
< 0.05 | Cc1nsc(-c2ccc(-c3ccc(C4(C(=O)O)CC4)cc3)cc2)c1NC(=O)O[C@H](C)c1cccc(F)c1 [Compound 194]
0.05 to 0.5 | Cc1nsc(-c2ccc(-c3ccc(CC(=O)O)cc3F)cc2)c1NC(=O)O[C@H](C)c1ccccc1Cl [Compound 195]
